Patent US7495028B2, “R-bambuterol, its preparation and therapeutic uses” (priority 2002, dated 2009)

Legend:
[1] = test system: conscious guinea pigs exposed to aerosol histamine; assay: Protection against histamine-evoked asthma in conscious guinea pigs; type: in vivo, guinea pig; details: for Collapsed n: 8 animals; for % collapse / Latency time of collapse: dose-response, four hours before exposure
Experimental: Test methods: Guinea pigs (Dunki-Hartley strain, 190±30 g) were fasted overnight but given water ad libidum. The animals were restrained individually in a glass chamber and exposed to aerosol histamine generated by a nebulizer from a 0.2% aqueous solution of histamine under constant pressure at dose of 0.5 ml/min for a period of 15 sec. The animal was removed from the chamber, and its behavior was monitored. A sign of collapse and the latency time from exposure to collapse were recorded. Only the animals with latency time less than 120 sec, as an indication of sensitive to histamine, were chosen for later experiments. The animals chosen were allowed to recover completly by resting for 24 hours before experiments. Test compounds and racemic bambuterol hydrochloride were dissolved in saline.
Time course of the effect of test compounds: R-Bambuterol hydrochloride or racemic bambuterol hydrochloride at 2, 4 and 8 mg/kg, and vehicle alone, were administered to the guinea pigs orally via a stomach tube. Exposure of treated animals to aerosol histamine (as above) was done at 1, 4 and 24 hours after treatment. For each experimental group, there were a total of 8 animals with equal number of both sexes, and no repeated exposure was made for individual experimental animals.
Study of dose-response of test compounds: Four hours before the exposure to aerosol histamine, animals were randomized into groups (n=8, equal male and female), and given R-bambuterol hydrochloride or racemic bambuterol in doses of 0.25, 0.5, 1.0, 2.0, 4.0 and 8.0 mg/kg, and vehicle control, orally via a stomach tube. The numbers of collapsed animal as a result of asthmatic reaction to aerosol histamine were counted, and the latency times were recorded. Both of these parameters were used as quantitative measurements of the protective effects of the treatments on bronchospasm evoked by aerosol histamine.

[2] = test system: hyperlipidemia mice; assay: Lipid lowering effects in Tyloxapol-induced hyperlipidemia mice; type: in vivo
Experimental: Test method: Male and […] mice, Kunming strain, 35 each, weight 18-22 grams, were used. Food and water were available ad libitum. The animals were randomized into 7 groups (n=10). Groups of animals were administered orafly, via a stomach tube, vehicle (distilled water, two groups), R-bambuterol hydrochloride (10 mg/kg and 5 mg/kg), racemic bambuterol hydrochloride (10 mg/kg and 5 mg/kg) and simvastatin (10 mg/kg) once a day for four days. With the exception of one vehicle—treated group (as control), Tyloxapol (400 mg/kg, Sigma Chemical Co.) was injected into the peritoneal cavity of the mice of all groups immediately after the last treatment on the fourth day in order to induce hyperlipidemia. All the animals were fasted overnight prior to the injection of Tyloxapol. Blood samples were collected by cardiac puncture 24 hours after the injection of Tyloxapol. The blood samples were processed to plasma, and concentration of triglycerides (TG), cholesterol (CHO), high density lipoprotein (HDL), low density lipoprotein (LDL) and very low density lipoprotein (VLDL) were measured with an autoblood analyzer (Olympic, Japan).

[3] = in plasma; cited from earlier work

CN(C)C(=O)Oc1cc(OC(=O)N(C)C)cc(C(O)CNC(C)(C)C)c1 (stereo not drawn) [RS-bambuterol, bambuterol] showed a Collapsed % ([1]; 2 mg/kg oral, 1st Hour) of 75.0%, a Latency ([1]; 2 mg/kg oral, 1st Hour) of 168 ± 61 s and a Collapsed n ([1]; 2 mg/kg oral, 1st Hour) of 6.0. For the same compound, the Collapsed % ([1]; 2 mg/kg oral, 4th Hour) was 50.0%, the Latency ([1]; 2 mg/kg oral, 4th Hour) was 227 ± 56 s and the Collapsed n ([1]; 2 mg/kg oral, 4th Hour) was 4.0. The Collapsed % ([1]; 2 mg/kg oral, 24th Hour) was 50.0%, the Latency ([1]; 2 mg/kg oral, 24th Hour) was 208 ± 65 s and the Collapsed n ([1]; 2 mg/kg oral, 24th Hour) was 5.0. It also gave a Collapsed % ([1]; 4 mg/kg oral, 1st Hour) of 62.5%, a Latency ([1]; 4 mg/kg oral, 1st Hour) of 199 ± 63 s and a Collapsed n ([1]; 4 mg/kg oral, 1st Hour) of 5.0. The Collapsed % ([1]; 4 mg/kg oral, 4th Hour) was 25.0%, the Latency ([1]; 4 mg/kg oral, 4th Hour) was 299 ± 51 s and the Collapsed n ([1]; 4 mg/kg oral, 4th Hour) was 2.0. It also gave a Collapsed % ([1]; 4 mg/kg oral, 24th Hour) of 37.5%, a Latency ([1]; 4 mg/kg oral, 24th Hour) of 287 ± 57 s and a Collapsed n ([1]; 4 mg/kg oral, 24th Hour) of 3.0. It also gave a Collapsed % ([1]; 8 mg/kg oral, 1st Hour) of 37.5%, a Latency ([1]; 8 mg/kg oral, 1st Hour) of 260 ± 66 s and a Collapsed n ([1]; 8 mg/kg oral, 1st Hour) of 3.0. It also gave a Collapsed % ([1]; 8 mg/kg oral, 4th Hour) of 0.0%, a Latency ([1]; 8 mg/kg oral, 4th Hour) greater than 360 s and a Collapsed n ([1]; 8 mg/kg oral, 4th Hour) of 0.0. For the same compound, the Collapsed % ([1]; 8 mg/kg oral, 24th Hour) was 25.0%, the Latency ([1]; 8 mg/kg oral, 24th Hour) was 303 ± 54 s and the Collapsed n ([1]; 8 mg/kg oral, 24th Hour) was 2.0. The “% collapse” value ([1]; 0.25 mg/kg oral) was 100%, the “Latency time of collapse” value ([1]; 0.25 mg/kg oral) was 61 s and the “% collapse” value ([1]; 0.5 mg/kg oral) was 87.5%. The “Latency time of collapse” value ([1]; 0.5 mg/kg oral) was 114 s, the “% collapse” value ([1]; 1 mg/kg oral) was 75% and the “Latency time of collapse” value ([1]; 1 mg/kg oral) was 151 s. For the same compound, the “% collapse” value ([1]; 2 mg/kg oral) was 50%, the “Latency time of collapse” value ([1]; 2 mg/kg oral) was 227 s and the “% collapse” value ([1]; 4 mg/kg oral) was 25%. For the same compound, the “Latency time of collapse” value ([1]; 4 mg/kg oral) was 299 s, the “% collapse” value ([1]; 8 mg/kg oral) was 0% and the “Latency time of collapse” value ([1]; 8 mg/kg oral) was greater than 360 s. For the same compound, the “Duration of protective effects” value ([1]; oral 2 to 8 mg/kg) was 24 h, the “Onset of protective effects after administration” value ([1]; oral 2 to 8 mg/kg) was “one” and the “Time of maximum protective effects after administration” value ([1]; oral 2 to 8 mg/kg) was 4 h. For the same compound, the “Dose at which full protective effect was seen” value ([1]; oral, collapse after aerosol histamine) was 8 mg/kg, the “ED50 (protection against collapse)” value ([1]; oral, four hours before aerosol histamine) was 1.68 mg/kg and the “Dose at which maximum effects on latency were seen” value ([1]; oral, latency time to collapse) was 8 mg/kg. It also gave a CHO lipid level ([2]; Tyl + 10 mg) of 125.2 ± 19.8 mg/dL, an HDL lipid level ([2]; Tyl + 10 mg) of 50 ± 17 mg/dL and an LDL lipid level ([2]; Tyl + 10 mg) of 30 ± 6 mg/dL. The VLDL lipid level ([2]; Tyl + 10 mg) was 44.2 ± 14.4 mg/dL, the TG lipid level ([2]; Tyl + 10 mg (10 mg/kg oral once a day for four days), plasma 24 hours after Tyloxapol) was 148 ± 45 mg/dL and the “Fraction of absorbed bambuterol hydrolyzed to terbutaline” value [3] was “about 50%”.
